The experiment has as its target T1, Human PTP1B (1-321) (Homo sapiens, UniProt P18031).
T1 construct: Human PTP1B (1-321) was cloned from a human cDNA library; made in house; host or cells: E. coli
T1 sequence (P18031 1-321): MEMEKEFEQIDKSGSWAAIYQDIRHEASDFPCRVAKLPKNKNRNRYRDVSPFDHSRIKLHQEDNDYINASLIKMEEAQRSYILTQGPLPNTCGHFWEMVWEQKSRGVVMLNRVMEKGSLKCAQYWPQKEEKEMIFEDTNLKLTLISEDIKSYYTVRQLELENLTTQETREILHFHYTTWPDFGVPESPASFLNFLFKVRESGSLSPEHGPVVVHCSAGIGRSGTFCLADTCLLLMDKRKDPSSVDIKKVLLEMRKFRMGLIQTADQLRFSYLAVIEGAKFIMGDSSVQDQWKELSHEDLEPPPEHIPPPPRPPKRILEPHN
The experiment is described as follows: In vitro inhibition of PTP1B (PTPase assays: Malachite Green phosphopeptide method or DiFMUP method). Type of experiment: biochemical. The settings on record: PTP1B inhibitory activity. How it is done: Human PTP1B (1-321) was cloned from a human cDNA library using conventional molecular biology techniques. The cDNA sequence was identical to the published human PTP1B sequence (Accession number M33689). The protein was expressed and purified from E. coli as described by Barford D. et. al J. Mol. Biol (1994) 239, 726-730.
The measurement of PTPase activity was carried out using one of two methods:
The first method for the measurement of PTP1B inhibitory activity a tyrosine phosphorylated peptide based on the amino acid sequence of insulin receptor tyrosine autophosphorylation site 1146 (TRDI(pY)E) was used as substrate. The reaction conditions were as follows:
PTP1B (0.5-2 nM) was incubated with compound for 15 min in buffer containing 37.5 mM Bis-Tris buffer pH 6.2, 140 mMNaCl, 0.05% BSA and 2 mM DTT. The reaction was started by the addition of 50 μM substrate. After 20 min at room temperature (22-25° C.), the reaction was stopped with KOH and the amount of free phosphate measured using Malachite Green as previously described (Harder et al. 1994 Biochem J. 298; 395).
The second method was used for the measurement of general PTPase inhibitory activity across a panel of PTPases the substrate (6,8-difluoro-4-methylumbelliferyl phosphate (DiFMUP; from Molecular Probes) was used at the Km for each enzyme. The buffer conditions were identical as in the Malachite Green assay. The reaction was stopped with KOH. In this case the dephosphoryated product becomes fluorescent and the fluorescense read (Excitiation: […]/Emmission: 460 nM).
The following Table lists IC50 results for several of the above exemplified compounds: […]

One may read the IC50 as the concentration that gives 50% inhibition.

`CNc1nc(N)nc2nc(-c3ccccc3C)ccc12` [Example 1, N4-Methyl-7-o-tolyl-pyrido[2,3-d]pyrimidine-2,4-diamine] yielded an IC50 of 1.66 µM.
With `CNc1nc(N)nc2nc(-c3c(Cl)cccc3Cl)ccc12` [Example 3, 7-(2,6-Dichloro-phenyl)-N4-methyl-pyrido[2,3-d]pyrimidine-2,4-diamine] the figure was 0.51 µM; with `CNc1nc(N)nc2nc(C3CCCCC3)ccc12` [Example 9, 7-Cyclohexyl-N4-methyl-pyrido[2,3-d]pyrimidine-2,4-diamine], 1.41 µM.
With `CNc1nc(N)nc2nc(-c3cccs3)ccc12` [Example 13, N4-Methyl-7-thiophen-2-yl-pyrido[2,3-d]pyrimidine-2,4-diamine] the figure was 3.57 µM; with `CNc1nc(N)nc2nc(-c3ccccc3)c(-c3ccccc3)cc12` [Example 14, N4-Methyl-6,7-diphenyl-pyrido[2,3-d]pyrimidine-2,4-diamine], 2.56 µM.
Turning to `CNc1nc(N)nc2nc3c(cc12)CCc1ccccc1-3` [Example 27, N8-Methyl-5,6-dihydro-benzo[h]pyrimido[4,5-b]quinoline-8,10-diamine], inhibition was half-maximal at 4.22 µM (IC50).
With `CNc1nc(N)nc2nc(-c3cccc4ccccc34)ccc12` [Example 28, N4-Methyl-7-naphthalen-1-yl-pyrido[2,3-d]pyrimidine-2,4-diamine] the figure was 1.15 µM.
The figure for `CNc1nc(N)nc2nc(-c3ccccc3C(F)(F)F)c(C(=O)O)cc12` [Example 56, 2-Amino-4-methylamino-7-(2-trifluoromethyl-phenyl)-pyrido[2,3-d]pyrimidine-6-carboxylic acid] is 0.25 µM; for `CNc1nc(N)nc2nc(C3(c4ccccc4)CCCCC3)ccc12` [Example 59, N4-Methyl-7-(1-phenyl-cyclohexyl)-pyrido[2,3-d]pyrimidine-2,4-diamine] it is 10.8 µM; for `CNc1nc(N)nc2nc(-c3c(Oc4ccccc4)cccc3C(F)(F)F)ccc12` [Example 80, N4-Methyl-7-(2-phenoxy-6-trifluoromethyl-phenyl)-pyrido[2,3-d]pyrimidine-2,4-diamine] it is 0.17 µM.
With `CNc1nc(N)nc2nc(-c3c(F)cccc3N3CCOCC3)ccc12` [Example 92, 7-(2-Fluoro-6-morpholino-4-yl-phenyl)-N4-methyl-pyrido[2,3-d]pyrimidine-2,4-diamine] the figure was 2.33 µM; with `CNc1nc(N)nc2nc(-c3c(N4C(C)CCC4C)cccc3C(F)(F)F)ccc12` (stereo not drawn) [Example 107, 7-[2-(2,5-Dimethyl-pyrrolidin-1-yl)-6-trifluoromethyl-phenyl]-N4-methyl-pyrido[2,3-d]pyrimidine-2,4-diamine], 0.8 µM.
The compound `CNc1nc(N)nc2nc(-c3c(N4CCN(C(=O)c5ccco5)CC4)cccc3C(F)(F)F)ccc12` [Example 116, {4-[2-(2-Amino-4-methylamino-pyrido[2,3-d]pyrimidin-7-yl)-3-trifluoromethyl-phenyl]-piperazin-1-yl}-furan-2-yl-methanone] showed an IC50 of 0.3 µM. Against the preceding compound, the IC50 is about 2.7-fold lower.
The figure for `CNc1nc(N)nc2nc(-c3c(N4CCC(Cc5ccccc5)CC4)cccc3C(F)(F)F)ccc12` [Example 121, 7-[2-(4-Benzyl-piperidin-1-yl)-6-trifluoromethyl-phenyl]-N4-methyl-pyrido[2,3-d]pyrimidine-2,4-diamine] is 2.05 µM.
The figure for `CNc1nc(N)nc2nc(-c3ccccc3)cc(-c3ccccc3)c12` [Example 139, N*4*-Methyl-5,7-diphenyl-pyrido[2,3-d]pyrimidine-2,4-diamine] is 52.4 µM.

These data come from patent US20100280021A1, “PYRIDOPYRIMIDINE PROTEIN TYROSINE PHOSPHATASE INHIBITORS” (priority 2005, published 2010).
